Key:
[1] = target: recombinant human integrin αvβ6 (Homo sapiens, UniProt P06756+P18564); experiment: Solid phase integrin αvβ6 binding assay; conditions: read-out: αvβ6 Inhibition IC50 (nM) - range
Experimental: Microplates were coated with recombinant human integrin αvβ6 (2 μg/mL) in PBS (100 μL/well 25° C., overnight). The coating solution was removed, washed with wash buffer (0.05% Tween 20; 0.5 mM MnCl2; in 1×TBS). The plate was blocked with 200 μL/well of Block Buffer (1% BSA; 5% sucrose; 0.5 mM MnCl2; in 1×TBS) at 37° C. for 2 h. Dilutions of testing compounds and recombinant TGFβ1 LAP (0.67 μg/mL) in binding buffer (0.05% BSA; 2.5% sucrose; 0.5 mM MnCl2; in 1×TBS) were added. The plate was incubated for 2 hours at 25° C., washed, and incubated for 1 hour with Biotin-Anti-hLAP. Bound antibody was detected by peroxidase-conjugated streptavidin. The IC50 values for testing compounds were calculated by a four-parameter logistic regression.
The compounds tested were compound samples prepared according to procedures described in the Synthetic Examples section, with the stereochemical purity as indicated in the Examples.

lung Col1a1 expression [2] = experiment: Precision cut lung slices, chronic bleomycin, comparison with nintedanib and pirfenidone (Example B10); type: cell-based, Mice (C57BL/6); conditions: chronic bleomycin PCLS, 7 days culture, vs DMSO vehicle; FIG. 6A
Experimental: (§1) Mice (C57BL/6) were administered 3 U/kg of bleomycin (Teva Pharmaceuticals; North Wales, Pa.) on Day 0 and 1 U/kg of bleomycin on days 14, 28, 42 and 56 via oropharyngeal aspiration while under anesthesia. At day 70, 14 days following the final bleomycin insult, precision cut lung slices were obtained. Following euthanization, 2% low gelling temp agarose was injected into the mouse lungs via the trachea. […] The lobes were then subjected to precision slicing to obtain samples for culture using a microtome (Compresstome VF-300-0Z, Precisionary; Greenville, N.C.). Individual slices were distributed in a multiwell culture plate and cultured for 7 days under control (DMSO) and test compound conditions. The viability of the slices over the course of culturing was confirmed by WST-1 assay of mitochondrial activity.
During the culture period, slices in the control group were treated with DMSO and slices in the test group were treated with a DMSO solution of one of: compound 5; nintedanib; pirfenidone; a combination of nintedanib and compound 5; a combination of pirfenidone and compound 5; or the small molecule ALK5 inhibitor. Compound 5 was […] effective to equal or exceed its respective IC50 values at αvβ6 and αvβ1. […] Nintendanib and pirfenidone were analyzed at concentrations 10× their reported therapeutic concentrations.

[3] = test system: Type I Collagen gene Col1a1; experiment: Col1a1 expression in lung slices versus DMSO control slices (FIG. 5A, 5B, 6A, 6C); type: cell-based; conditions: FIG. 6A; compared to the DMSO vehicle control slices
COL1A1 expression = experiment: PCLS from IPF lung tissue, seven days, COL1A1 expression; type: cell-based, human; conditions: PCLS from 5-7 IPF lung tissue samples, Compound 5 200 nM, nintedanib 75 nM, pirfenidone 50 μm, FIG. 6D
Experimental: PCLS from 5-7 idopathic pulmonary fibrosis (IPF) lung tissue samples were cultured for seven days with one of: DMSO; Compound 5 at 200 nM; nintedanib at 75 nM; pirfenidone at 50 μm; a combination of Compound 5 at 200 nM and nintedanib at 75 nM; a combination of Compound 5 at 200 nM and pirfenidone at 50 μm; or an Alk5 inhibitor at 1 μm. […] FIG. 6D is a bar graph showing relative expression of COL1A1 in precision cut lung slices (PCLS) from idopathic pulmonary fibrosis (IPF) lung tissue upon exposure to Compound 5, clinical standard of care compounds nintedanib (Nin) and pirfenidone (Pirf), and an ALK5 inhibitor, all versus DMSO control.
PCLS from a single IPF lung tissue sample were cultured for seven days with Compound 5 at concentrations of 200 pM, 2 nM, 60 nM, 200 nM, and 1 μM, along with 0.1% DMSO control and an Alk5 inhibitor at 1 μM. […] COL1A1 expression is also graphed for the PCLS in the presence of 0.1% DMSO control, and an Alk5 inhibitor at 1 μM.

[4] = test system: Type I Collagen gene Col1a1 expression; experiment: Precision cut lung slices of mice under acute bleomycin exposure, Col1a1 expression; type: cell-based, Mice (C57BL/6); conditions: acute bleomycin PCLS, 3 days culture, normalized to DMSO; FIG. 5A
Experimental: Mice (C57BL/6) were administered 3 U/kg of bleomycin (Teva Pharmaceuticals; North Wales, Pa.) on day 0 via oropharyngeal aspiration while under anesthesia. On day 14, precision cut lung slices were obtained. Following euthanization, 2% low gelling temp agarose was injected into the mouse lungs via the trachea. […] The lobes were then subjected to precision slicing to obtain samples for culture using a microtome (Compresstome VF-300-0Z, Precisionary; Greenville, N.C.). Individual slices were distributed in a multiwell culture plate and cultured for 3 days under control (DMSO) and test compound conditions.

lung Col1a1 expression [5] = experiment: Precision cut lung slices from human IPF explants, 3 days, Col1a1 expression; type: cell-based; conditions: human IPF PCLS, 3G9 ≥400 ng/mL, compound 5 179 nM, ALK5 inhibitor 1 μM, FIG. 6C
Text: Explanted lung tissue was obtained from human IPF subjects and inflated with agarose as described in the preceding examples. Biopsy cores were obtained from the agarose-inflated lung tissue. The biopsy cores were subjected to precision slicing to obtain several hundred μm thick. Individual slices were distributed in a multiwell culture plate and cultured for […] under control (DMSO) and test compound conditions. The viability of the slices over the course of culturing was confirmed by WST-1 assay of mitochondrial activity.

lung Col1a1 expression [6] = experiment: Precision cut lung slices of mice under chronic bleomycin exposure, Col1a1 expression (Example B9); type: cell-based, Mice (C57BL/6); conditions: chronic bleomycin PCLS, 7 days culture, normalized to DMSO; FIG. 5B
Experimental: as §1, with “after” for “following”
During the culture period, slices in the control group were treated with DMSO and slices in the test group were treated with a DMSO solution of one of: the selective antibody αvβ6 inhibitor 3G9; the αvβ1-selective small molecule inhibitor; a combination of the selective antibody αvβ6 inhibitor 3G9 and the αvβ1-selective small molecule inhibitor; compound 5; and the small molecule ALK5 inhibitor. The selective αvβ1 and αvβ6 integrin inhibitors were analyzed at ≥their respective IC90 concentrations for inhibition of TGF-beta activation. […]

Chain of recombinant human integrin αvβ6 (P06756 31-992 limits assumed): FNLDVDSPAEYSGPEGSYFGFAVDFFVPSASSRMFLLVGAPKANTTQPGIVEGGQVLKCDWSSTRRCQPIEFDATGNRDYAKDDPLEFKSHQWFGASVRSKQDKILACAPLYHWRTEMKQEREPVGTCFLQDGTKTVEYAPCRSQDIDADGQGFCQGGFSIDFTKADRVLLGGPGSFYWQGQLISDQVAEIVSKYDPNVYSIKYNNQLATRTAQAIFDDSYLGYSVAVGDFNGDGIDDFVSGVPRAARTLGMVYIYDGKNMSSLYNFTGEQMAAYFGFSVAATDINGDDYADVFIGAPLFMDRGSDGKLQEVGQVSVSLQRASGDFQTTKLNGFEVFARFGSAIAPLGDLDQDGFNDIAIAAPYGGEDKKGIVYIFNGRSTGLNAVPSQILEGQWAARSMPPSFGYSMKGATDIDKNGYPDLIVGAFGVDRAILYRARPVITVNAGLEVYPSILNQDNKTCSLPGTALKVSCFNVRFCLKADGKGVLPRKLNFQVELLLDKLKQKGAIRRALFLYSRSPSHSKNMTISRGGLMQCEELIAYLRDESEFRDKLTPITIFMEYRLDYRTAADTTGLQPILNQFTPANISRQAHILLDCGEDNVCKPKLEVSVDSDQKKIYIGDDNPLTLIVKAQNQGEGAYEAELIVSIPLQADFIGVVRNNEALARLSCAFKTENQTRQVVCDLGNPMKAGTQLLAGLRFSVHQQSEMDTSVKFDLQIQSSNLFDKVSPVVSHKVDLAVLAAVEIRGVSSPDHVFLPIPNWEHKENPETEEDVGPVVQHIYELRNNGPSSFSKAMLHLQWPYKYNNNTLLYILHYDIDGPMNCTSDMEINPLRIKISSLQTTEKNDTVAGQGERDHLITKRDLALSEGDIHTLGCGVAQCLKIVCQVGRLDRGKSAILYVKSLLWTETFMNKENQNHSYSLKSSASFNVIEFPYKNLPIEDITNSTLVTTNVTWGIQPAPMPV
Chain of recombinant human integrin αvβ6 (P18564 22-707 limits assumed): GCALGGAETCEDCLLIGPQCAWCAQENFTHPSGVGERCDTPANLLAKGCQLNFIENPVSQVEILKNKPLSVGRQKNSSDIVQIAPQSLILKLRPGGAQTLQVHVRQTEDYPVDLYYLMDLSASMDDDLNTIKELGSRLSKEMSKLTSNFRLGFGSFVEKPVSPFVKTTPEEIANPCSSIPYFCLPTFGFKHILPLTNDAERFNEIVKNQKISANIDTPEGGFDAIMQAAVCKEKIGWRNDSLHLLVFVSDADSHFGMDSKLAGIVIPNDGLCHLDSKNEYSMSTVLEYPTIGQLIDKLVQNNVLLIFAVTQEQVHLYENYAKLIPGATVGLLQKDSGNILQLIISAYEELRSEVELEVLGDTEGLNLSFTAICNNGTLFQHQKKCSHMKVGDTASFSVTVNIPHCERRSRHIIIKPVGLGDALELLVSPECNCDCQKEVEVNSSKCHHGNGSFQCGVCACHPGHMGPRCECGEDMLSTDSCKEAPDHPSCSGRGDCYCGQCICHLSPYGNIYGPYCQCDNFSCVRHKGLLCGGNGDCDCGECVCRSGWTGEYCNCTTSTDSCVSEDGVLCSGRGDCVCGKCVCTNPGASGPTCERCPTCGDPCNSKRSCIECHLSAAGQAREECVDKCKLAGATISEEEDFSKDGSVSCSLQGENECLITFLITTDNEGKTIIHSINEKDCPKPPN

Row | SMILES | lung slice Col1a1 expression (lung Col1a1 expression [2]) | lung Col1a1 expression [3] | reduced COL1A1 expression (COL1A1 expression) | Type I Collagen gene Col1a1 expression [4] | further results
1 | O=C(O)[C@H](CCN(CCCCc1ccc2c(n1)NCCC2)CCOc1ccc(F)cc1)Nc1ncc(C(F)(F)F)cn1 [Compound 139, (S)-4-((2-(4-fluorophenoxy)ethyl) (4-(5,6,7,8-tetrahydro-1,8-naphthyridin-2-yl)butyl)amino)-2-((5-(trifluoromethyl)pyrimidin-2-yl)amino) butanoic acid] | – | – | – | – | IC50 [1]: < 50 nM
2 | COC(=O)c1ccc2c(c1)NC(=O)/C2=C(\Nc1ccc(N(C)C(=O)CN2CCN(C)CC2)cc1)c1ccccc1 [nintedanib] | slight increase | slight increase | did not significantly reduce | – | –
3 | Cc1ccc(=O)n(-c2ccccc2)c1 [pirfenidone] | slight increase | slight increase | did not significantly reduce | – | –
4 | CC(C)(C)c1cc(Br)cc(C(CC(=O)O)NC(=O)CNC(=O)c2cc(O)cc(NC3=NCC(O)CN3)c2)c1 [second pan-αv small molecule inhibitor, (3S)-N-[3-hydroxy-5-[(1,4,5,6-tetrahydro-5-hydroxy-2-pyrimidinyl)amino]benzoyl]glycyl-3-[3-bromo-5-(1,1-dimethylethyl)phenyl]-3-alanine] | – | – | – | reduced Type I Collagen gene Col1a1 expression | –
5 | Cc1cccc(-c2n[nH]cc2-c2ccc(F)c(-c3cnn(CCO)c3)c2)n1 [small molecule ALK5 inhibitor, 4-[2-Fluoro-5-[3-(6-methyl-2-pyridinyl)-1H-pyrazol-4-yl]phenyl]-1H-pyrazole-1-ethanol, reference compound] | substantial, statistically significant (p<0.0001 vs vehicle) decrease | – | – | greatest decrease | lung Col1a1 expression (lung Col1a1 expression [5]): substantial, statistically significant; lung Col1a1 expression (lung Col1a1 expression [6]): greatest decrease

Source: patent US20230028658A1, “EXPANDED DOSAGE REGIMENS FOR INTEGRIN INHIBITORS” (Pliant Therapeutics, Inc., priority 2021, published 2023)
